Literature values in patent US20240294453A1, “Deuterated agonists and methods of use” (priority 2018, published 2024).

Test system: subjects with schizophrenia
[1] = 5 mg or 50 mg orally once daily, 24 weeks

Structure (SMILES): O=C(N[C@@H]1C2CCN(CC2)[C@H]1Cc1cccnc1)c1cc2ccccc2o1 [TC-5619]
- scores of CSB, UPSA-B, PANSS, CGI-I, CGI-S, or SGI-Cog vs placebo, P (none favored TC-5619) [1]: > 0.05
- tolerability [1]: generally well tolerated
- SANS score vs placebo, 2-tailed P (5 mg, week 24): 0.159
- benefit in some outcome measures in tobacco users (tobacco users, no concordance by dose, country, gender): Sporadic statistical benefit
- Scale for the Assessment of Negative Symptoms (SANS) composite score, benefit vs placebo (week 24, orally once daily, 5 mg or 50 mg, added to a new-generation antipsychotic): no statistical benefit
